Targets include PIV-5 RdRp complex (Parainfluenza virus 5, UniProt Q88434); EV-71 RdRp (3Dpol) (Enterovirus A71, UniProt E5RPG3); HMPV RdRp complex (Human metapneumovirus, UniProt Q6WB93); HRV-16 RdRp (3Dpol) (Human rhinovirus 16, UniProt Q82122); HPIV-3 RdRp complex (Human parainfluenza 3 virus, UniProt P12577).
In series [1] the target is T1, MERS-CoV RdRp complex (Middle East respiratory syndrome-related coronavirus, UniProt K9N7C7). As to conditions: cited from earlier work.
Series [2] addresses T2, RSV RdRp complex (Human respiratory syncytial virus A, UniProt P28887). The settings on record: cited from earlier work.
Series [3] has as its target T1, MERS-CoV RdRp complex.
A further series deals with SARS-CoV RdRp complex. The settings on record: cited from earlier work.
The target of series [4] is T3, LASV RdRp (Mammarenavirus lassaense, UniProt Q6GWS2). The settings on record: cited from earlier work.
In series [5] the target is T4, SARS-CoV-2 RdRp complex (Severe acute respiratory syndrome coronavirus 2, UniProt P0DTD1). As to conditions: cited from earlier work; for Km: previously reported.
For series [6], the target named is T5, human mitochondrial RNA polymerase (h-mtRNAP) (Homo sapiens, UniProt O00411). Format: biochemical.
T5 sequence (O00411 42-1230 limits assumed): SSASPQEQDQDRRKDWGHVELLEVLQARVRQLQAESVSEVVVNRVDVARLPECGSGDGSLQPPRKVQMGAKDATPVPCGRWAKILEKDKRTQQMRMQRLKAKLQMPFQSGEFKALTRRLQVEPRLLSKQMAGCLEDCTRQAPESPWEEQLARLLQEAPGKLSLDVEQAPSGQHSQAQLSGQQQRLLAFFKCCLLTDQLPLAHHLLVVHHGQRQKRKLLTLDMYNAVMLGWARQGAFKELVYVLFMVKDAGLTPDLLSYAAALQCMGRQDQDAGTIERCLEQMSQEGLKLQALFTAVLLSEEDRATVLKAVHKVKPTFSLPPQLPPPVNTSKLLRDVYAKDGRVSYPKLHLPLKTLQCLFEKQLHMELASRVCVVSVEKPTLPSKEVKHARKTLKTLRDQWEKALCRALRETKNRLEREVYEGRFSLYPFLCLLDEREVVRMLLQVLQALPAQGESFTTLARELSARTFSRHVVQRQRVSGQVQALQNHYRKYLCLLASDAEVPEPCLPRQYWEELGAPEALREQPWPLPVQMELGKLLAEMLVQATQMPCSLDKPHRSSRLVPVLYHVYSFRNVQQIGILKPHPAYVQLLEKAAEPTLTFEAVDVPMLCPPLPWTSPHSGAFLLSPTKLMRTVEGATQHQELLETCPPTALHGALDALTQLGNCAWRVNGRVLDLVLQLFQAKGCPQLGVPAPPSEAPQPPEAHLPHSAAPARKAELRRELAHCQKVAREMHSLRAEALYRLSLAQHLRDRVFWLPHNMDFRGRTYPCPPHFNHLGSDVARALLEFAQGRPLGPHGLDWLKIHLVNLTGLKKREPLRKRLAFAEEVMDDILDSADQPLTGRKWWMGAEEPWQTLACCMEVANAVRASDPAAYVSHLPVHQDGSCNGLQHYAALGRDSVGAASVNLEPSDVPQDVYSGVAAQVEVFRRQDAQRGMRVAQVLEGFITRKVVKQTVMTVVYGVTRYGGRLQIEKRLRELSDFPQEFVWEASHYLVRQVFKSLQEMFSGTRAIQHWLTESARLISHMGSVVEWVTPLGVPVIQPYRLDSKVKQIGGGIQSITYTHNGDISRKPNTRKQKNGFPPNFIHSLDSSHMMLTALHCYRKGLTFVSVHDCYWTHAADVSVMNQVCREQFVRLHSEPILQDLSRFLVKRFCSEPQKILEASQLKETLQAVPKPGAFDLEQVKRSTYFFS
In series [7] the target is T5, human mitochondrial RNA polymerase (h-mtRNAP). The settings on record: cited from earlier work.
Series [8] has as its target T2, RSV RdRp complex.
Series [9] has as its target T3, LASV RdRp.
Series [10] addresses T6, influenza B RdRp (Influenza B virus, UniProt Q5V8Y6). The settings on record: cited from earlier work.
In series [11] the target is T6, influenza B RdRp. The class given is biochemical.
For series [12], the system named is EV-71 RdRp. Format: biochemical.
For series [13], the system named is EV-71 RdRp. The class given is biochemical. This is another data set of the same source.
A further series has as its target HMPV RdRp (Human metapneumovirus, UniProt Q6WB93). The class given is biochemical.
The target in series [14] is T7, HRV-16 RdRp (Human rhinovirus 16, UniProt Q82122). The class given is biochemical.
In series [15] the target is T4, SARS-CoV-2 RdRp complex.
The target in a further series is SARS-CoV-2 RdRp (Severe acute respiratory syndrome coronavirus 2, UniProt P0DTD1). Format: biochemical.
In another series the target is PIV-5 RdRp (Parainfluenza virus 5, UniProt Q88434). Format: biochemical.
Another series has as its target MERS-CoV RdRp (Middle East respiratory syndrome-related coronavirus, UniProt K9N7C7). Format: biochemical.
The next series concerns the target HPIV-3 RdRp (Human parainfluenza 3 virus, UniProt P12577). The class given is biochemical.
The target in series [16] is T7, HRV-16 RdRp. Format: biochemical. The source holds these as a separate data set.
In the next series the target is RSV RdRp (Human respiratory syncytial virus A, UniProt P28887). The class given is biochemical.
Series [17] deals with N#C[C@@]1(c2ccc3c(N)ncnn23)O[C@H](COP(=O)(O)OP(=O)(O)OP(=O)(O)O)[C@@H](O)[C@H]1O. The series is described as follows: purified protein, by the assay type. The settings on record: pH 8.0.
Series [18] deals with Nc1ncnc2c1ncn2[C@@H]1O[C@H](COP(=O)(O)OP(=O)(O)OP(=O)(O)O)[C@@H](O)[C@H]1O. The series is described as follows: purified protein, by the assay type. The settings on record: pH 8.0.
Where [19] appears, read: SARS-CoV-2 RdRp, ref Gordon et al. ([45]).

“And” between values parts separate entries of the source, which are not always exact repeats. Equal entries are not always repeated. Where two headings read alike, the source gives them in different places. Marks after values point to notes of the source that are not given here.

As to `Nc1ncnc2c1ncn2[C@@H]1O[C@H](COP(=O)(O)OP(=O)(O)OP(=O)(O)O)[C@@H](O)[C@H]1O` [ATP], the Km on MERS-CoV RdRp complex [1] is 0.017 ± 0.019 µM; at RSV RdRp complex [2], 0.17 ± 0.023 µM; in the series with SARS-CoV RdRp complex, 0.03 ± 0.003 µM; at LASV RdRp [4], 0.11 ± 0.02 µM; at SARS-CoV-2 RdRp complex [5] (setting [19]), 0.03 ± 0.003 µM; in series [6], 0.096 ± 0.0091 µM. The Km in series [7] is 0.05 ± 0.0037 µM. For the same molecule, the “Vmax (product fraction)” value on MERS-CoV RdRp complex [1] was 0.47 ± 0.011; at RSV RdRp complex [2] it was 0.76 ± 0.022; at MERS-CoV RdRp complex [3], 0.84 ± 0.0090; with SARS-CoV RdRp complex it was 0.73 ± 0.017; on LASV RdRp [4] it was 0.57 ± 0.032; on PIV-5 RdRp complex, 0.74 ± 0.026. For the same molecule, the “Vmax (product fraction)” value is 0.96 ± 0.021 on EV-71 RdRp (3Dpol); 0.60 ± 0.024 and 0.39 ± 0.028 at HMPV RdRp complex; 0.90 ± 0.017 on HRV-16 RdRp (3Dpol); 0.93 ± 0.026 in series [6]; 0.98 ± 0.018 in series [7]; 0.61 ± 0.065 on RSV RdRp complex [8]. Further, the “Vmax (product fraction)” value on HPIV-3 RdRp complex is given as 0.63 ± 0.025; on LASV RdRp [9], 0.80 ± 0.0037; at influenza B RdRp [10] it was 0.73 ± 0.014; on influenza B RdRp [11], 0.68 ± 0.014.
With `N#C[C@@]1(c2ccc3c(N)ncnn23)O[C@H](COP(=O)(O)OP(=O)(O)OP(=O)(O)O)[C@@H](O)[C@H]1O` [GS-443902], the “Pattern of inhibition of RNA primer extension after incorporation at position i” value in the series with EV-71 RdRp [12], on HRV-16 RdRp [14] and on SARS-CoV-2 RdRp was “intermediate product at position “i + 3”” throughout. In addition, the “Vmax (product fraction) of UTP incorporation at i + 1” value (from here on “Vmax (product fraction) … at i + 1”) amounted to 0.48 ± 0.005 in the series on EV-71 RdRp [12]; 0.28 ± 0.018 at HMPV RdRp; 0.67 ± 0.015 on HRV-16 RdRp [14]; 1.13 ± 0.047 on SARS-CoV-2 RdRp; 0.48 ± 0.0089 at PIV-5 RdRp; 0.98 ± 0.018 on MERS-CoV RdRp. For the same molecule, the “Vmax (product fraction) … at i + 1” value on HPIV-3 RdRp is given as 0.58 ± 0.011. The Km on MERS-CoV RdRp complex [1] was 0.0063 ± 0.0006 µM; on RSV RdRp complex [2] it was 0.5 ± 0.089 µM; in the series on SARS-CoV RdRp complex, 0.01 ± 0.0008 µM; at LASV RdRp [4] it was 1.3 ± 0.18 µM; on SARS-CoV-2 RdRp complex [5] (setting [19]), 0.0089 ± 0.002 µM; in series [7], 21 ± 0.096 µM. Further, the “Selectivity (fold), Vmax/Km ATP over Vmax/Km analog” value is 0.35 ^d fold on MERS-CoV RdRp complex [1]; 2.7 fold and 2.73 ^e fold on RSV RdRp complex [2] (RSV RdRp, ref Tchesnokov et al. ([47])); 0.32 ^d fold in the series on SARS-CoV RdRp complex; 20 ^d fold at LASV RdRp [4]; 8.3 fold and 8.31 fold at PIV-5 RdRp complex; 0.28 ^d fold on SARS-CoV-2 RdRp complex [5] (setting [19]). The “Selectivity (fold), Vmax/Km ATP over Vmax/Km analog” value at HMPV RdRp complex is 6.7 fold and 6.71 fold; in series [7] (h-mtRNAP, ref Tchesnokov et al. ([47])) it was 503 ^e fold; on HPIV-3 RdRp complex it was 7.20 fold; on influenza B RdRp [10] (FluB RdRp, ref Gordon et al. ([45])), 68 ^d fold. Also, the “Vmax (product fraction)” value on MERS-CoV RdRp complex [1] was 0.50 ± 0.012; at RSV RdRp complex [2] it was 0.82 ± 0.027; on MERS-CoV RdRp complex [3], 0.90 ± 0.012; with SARS-CoV RdRp complex it was 0.70 ± 0.015; at LASV RdRp [4], 0.35 ± 0.016; on PIV-5 RdRp complex it was 0.77 ± 0.042 and 0.69 ± 0.013. For the same molecule, the “Vmax (product fraction)” value is 0.74 ± 0.023 on SARS-CoV-2 RdRp complex [5]; 0.88 ± 0.015 at SARS-CoV-2 RdRp complex [15]; 0.93 ± 0.027 and 0.93 ± 0.019 on EV-71 RdRp (3Dpol); 0.57 ± 0.045 and 0.53 ± 0.027 at HMPV RdRp complex; 0.96 ± 0.015 and 0.80 ± 0.021 on HRV-16 RdRp (3Dpol); 0.67 ± 0.22 in series [6]. Further, the “Vmax (product fraction)” value in [7] was 0.81 ± 0.013; on RSV RdRp complex [8] it was 0.80 ± 0.059; on HPIV-3 RdRp complex it was 0.63 ± 0.010 and 0.78 ± 0.012; on LASV RdRp [9] it was 0.29 ± 0.091; on influenza B RdRp [10], 0.45 ± 0.0064; at influenza B RdRp [11] it was 0.18 ± 0.0057. In addition, in the series on EV-71 RdRp [13], the “Inhibition (fold) of UTP incorporation across embedded analog” value is reported as ~16 fold. For the same molecule, the “Inhibition (fold) vs Template A” value on HRV-16 RdRp [16] is ~8 fold and 7.8 fold. Besides, on HRV-16 RdRp [16], the “UTP” value turned out to be 3.9 µM.
For the molecule AMP, the “Vmax (product fraction) … at i + 1” value with EV-71 RdRp [12] is listed as 0.65 ± 0.003; on HMPV RdRp, 0.48 ± 0.026; at HRV-16 RdRp [14], 0.76 ± 0.015; on PIV-5 RdRp, 0.51 ± 0.022; at MERS-CoV RdRp it was 1.03 ± 0.016; at RSV RdRp it was 0.70 ± 0.037. On HPIV-3 RdRp, the “Vmax (product fraction) … at i + 1” value was found to be 0.56 ± 0.0097.
For the molecule EV-71 RdRp (3Dpol) (Enterovirus A71), the Km in [17] is recorded as 0.86 ± 0.081 µM; in series [18], 0.96 ± 0.066 µM.
For the molecule “HMPV RdRp complex (Human metapneumovirus CAN97-83)”, the Km in [17] is on record as 42.19 ± 7.79 µM.
As for “HPIV-3 RdRp complex (Human parainfluenza 3 virus (strain NIH 47885))”, the results for the Km in [17] and in [18] were 0.44 ± 0.040 µM and 0.061 ± 0.015 µM, respectively.
For HRV-16 RdRp (3Dpol) (rhinovirus A16), in that order: 4.96 ± 0.27 µM and 4.52 ± 0.31 µM.
Consider LASV RdRp (Lassa virus Josiah), for which the Km in [18] stood at 0.39 ± 0.075 µM.
On the same count and under the same terms, with “MERS-CoV RdRp complex (Betacoronavirus England 1)” the figure was 0.032 ± 0.0014 µM.
Consider “PIV-5 RdRp complex (Simian virus 5 (strain W3))”, for which the figures for the Michaelis constant (Km) in series [17] and in series [18] were 13 ± 2.3 µM and 1.5 ± 0.25 µM, respectively.
Regarding “RSV RdRp complex (Human respiratory syncytial virus A2)”, the Michaelis constant (Km) in [18] is listed as 0.97 ± 0.36 µM.
Still for that read-out and setting: the figure for “SARS-CoV-2 RdRp complex (Severe acute respiratory syndrome coronavirus 2)” is 0.057 ± 0.0078 µM.
